Source: patent US20070275967A1, “Pyrazolinols” (BAYER CROPSCIENCE AKTIENGESELLSCHAFT, priority 2003, published 2007)

assay: logP determination by HPLC on reversed-phase column (EEC Directive 79/831 Annex V.A8); format: physicochemical; conditions: acidic range (pH 2.3), marked a); 0.1% aqueous phosphoric acid/acetonitrile gradient; reversed-phase C 18; 43° C.
Description: The logP values given in the table were determined in accordance with EEC Directive 79/831 Annex V.A8 by HPLC (High Performance Liquid Chromatography) on a reversed-phase column (C 18). Temperature: 43° C. (a) Mobile phases for the determination in the acidic range (pH 2.3): 0.1% aqueous phosphoric acid, acetonitrile; linear gradient from 10% acetonitrile to 90% acetonitrile—the corresponding measurement results in table 1 are marked a). (b) Mobile phases for the determination in the neutral range (pH 7.5): 0.01-molar aqueous phosphate buffer solution, acetonitrile; linear gradient from 10% acetonitrile to 90% acetonitrile—the corresponding measurement results in table 1 are marked b). Calibration was carried out using unbranched alkan-2-ones (having 3 to 16 carbon atoms) with known logP values (determination of the logP values by the retention times using linear interpolation between two successive alkanones).

Compound	logP
CC(C)CC1=NN(C(=O)Nc2ccccc2)C(O)(C(F)(F)F)C1 (racemic) [Example 3]	logP = 3.72^a)
CC(C)CC1=NN(C(=O)Nc2ccc(Cl)c(Cl)c2)C(O)(C(F)(F)F)C1 (racemic) [Example 4]	logP = 4.63^a)
CC(C)CC1=NN(C(=O)Nc2ccc(Cl)cc2)C(O)(C(F)(F)F)C1 (racemic) [Example 5]	logP = 4.18^a)
CC(C)CC1=NN(C(=S)Nc2ccccc2)C(O)(C(F)(F)F)C1 (racemic) [Example 7]	logP = 4.31^a)
CC(C)CC1=NN(C(=S)Nc2ccccc2F)C(O)(C(F)(F)F)C1 (racemic) [Example 11]	logP = 4.23^a)
CCC1=NN(C(=O)Nc2ccc(Cl)cc2)C(O)(C(F)(F)F)C1 (racemic) [Example 13]	logP = 3.41^a)
CCC1=NN(C(=S)Nc2ccc(C(C)(C)C)cc2)C(O)(C(F)(F)F)C1 (racemic) [Example 16]	logP = 4.84^a)
CC(C)C1=NN(C(=O)Nc2ccc(OC(F)(F)F)cc2)C(O)(C(F)(F)F)C1 (racemic) [Example 17]	logP = 4.09^a)
CC(C)C1=NN(C(=O)Nc2ccc(Cl)cc2)C(O)(C(F)(F)F)C1 (racemic) [Example 18]	logP = 3.79^a)
CC(C)C1=NN(C(=S)Nc2ccc(C(C)(C)C)cc2)C(O)(C(F)(F)F)C1 (racemic) [Example 21]	logP = 5.18^a)
COc1ccc(NC(=S)N2N=C(CC(C)C)CC2(O)C(F)(F)F)cc1 (racemic) [Example 23]	logP = 4.17^a)
CC(C)CC1=NN(C(=S)Nc2ccc(C(C)(C)C)cc2)C(O)(C(F)(F)F)C1 (racemic) [Example 25]	logP = 5.50^a)
CC(C)C1=NN(C(=O)Nc2ccccc2)C(O)(C(F)(F)F)C1 (racemic) [Example 28]	logP = 3.32^a)
CC(C)C1=NN(C(=S)Nc2cccnc2)C(O)(C(F)(F)F)C1 (racemic) [Example 35]	logP = 1.96^a)
CC(C)C1=NN(C(=S)Nc2ccc(OC(F)(F)F)cc2)C(O)(C(F)(F)F)C1 (racemic) [Example 36]	logP = 4.61^a)
CC(C)C1=NN(C(=O)Nc2ccccc2Cl)C(O)(C(F)(F)F)C1 (racemic) [Example 37]	logP = 4.10^a)

Compound	logP
CCC1=NN(C(=S)Nc2ccccc2)C(O)(C(F)(F)F)C1 (racemic) [Example 38]	logP = 3.57^a)
CCC1=NN(C(=O)Nc2ccccc2)C(O)(C(F)(F)F)C1 (racemic) [Example 39]	logP = 2.91^a)
CC(C)C1=NN(C(=S)NCc2ccco2)C(O)(C(F)(F)F)C1 (racemic) [Example 41]	logP = 3.78^a)
CC(C)C1=NN(C(N)=S)C(O)(C(F)(F)F)C1 (racemic) [Example 45]	logP = 2.47^a)
CC(C)C1=NN(C(=O)Nc2cccnc2)C(O)(C(F)(F)F)C1 (racemic) [Example 47]	logP = 1.15^a)
CC(C)C1=NN(C(=O)Nc2ccccn2)C(O)(C(F)(F)F)C1 (racemic) [Example 48]	logP = 1.78^a)
CCC1=NN(C(=O)Nc2ccc(Cl)cc2)C(O)(C(F)(F)F)C1 (racemic) [Example 49]	logP = 3.43^a)
CCC1=NN(C(=O)Nc2ccc(F)cc2)C(O)(C(F)(F)F)C1 (centres unmarked) [Example 50]	logP = 2.96^a)
CCC1=NN(C(=O)Nc2ccc(C#N)cc2)C(O)(C(F)(F)F)C1 (centres unmarked) [Example 51]	logP = 2.65^a)
O=C(Nc1ccc(OC(F)(F)F)cc1)N1N=C(C2(Cl)CC2)CC1(O)C(F)(F)F (centres unmarked) [Example 52]	logP = 4.07^a)
CCC1=NN(C(=S)Nc2ccc(C(F)(F)F)cc2)C(O)(C(F)(F)F)C1 (centres unmarked) [Example 54]	logP = 4.27^a)
CCC1=NN(C(=S)Nc2ccc(Cl)cc2Cl)C(O)(C(F)(F)F)C1 (centres unmarked) [Example 57]	logP = 4.53^a)
CC(C)(C)C1=NN(C(=O)Nc2ccc(Cl)cc2)C(O)(C(F)(F)F)C1 (centres unmarked) [Example 58]	logP = 4.16^a)
CC(C)(C)C1=NN(C(=O)Nc2ccc(Cl)c(Cl)c2)C(O)(C(F)(F)F)C1 (centres unmarked) [Example 59]	logP = 4.62^a)
CC(C)(C)C1=NN(C(=O)Nc2ccc(C#N)cc2)C(O)(C(F)(F)F)C1 (centres unmarked) [Example 60]	logP = 3.34^a)
COc1ccc(NC(=S)N2N=C(C(C)(C)C)CC2(O)C(F)(F)F)cc1 (centres unmarked) [Example 61]	logP = 3.54^a)

The remaining lines, values ahead:

logP	Compound
logP = 4.62^a)	Cc1ccc(NC(=S)N2N=C(C(C)(C)C)CC2(O)C(F)(F)F)cc1 (centres unmarked) [Example 62]
logP = 4.58^a)	CC(C)(C)C1=NN(C(=O)Nc2ccccc2)C(O)(C(F)(F)F)C1 (centres unmarked) [Example 65]
logP = 3.68^a)	CC(C)(C)C1=NN(C(=O)NC2CCCCC2)C(O)(C(F)(F)F)C1 (centres unmarked) [Example 66]
logP = 4.41^a)	CC(C)(C)C1=NN(C(=O)Nc2ccc(OC(F)(F)F)cc2)C(O)(C(F)(F)F)C1 (centres unmarked) [Example 67]
logP = 5.18^a)	CC(C)(C)C1=NN(C(=O)Nc2ccc(Cl)cc2Cl)C(O)(C(F)(F)F)C1 (centres unmarked) [Example 68]
logP = 4.48^a)	CC(C)(C)C1=NN(C(=O)Nc2ccccc2Cl)C(O)(C(F)(F)F)C1 (centres unmarked) [Example 69]
logP = 3.94^a)	CC(C)(C)C1=NN(C(=O)NCc2ccc(Cl)cc2)C(O)(C(F)(F)F)C1 (centres unmarked) [Example 71]
logP = 3.97^a)	CC(C)(C)C1=NN(C(=O)NCc2ccccc2Cl)C(O)(C(F)(F)F)C1 (centres unmarked) [Example 72]
logP = 4.34^a)	CCC1=NN(C(=O)Nc2cc(Cl)cc(Cl)c2)C(O)(C(F)(F)F)C1 (centres unmarked) [Example 76]
logP = 4.41^a)	OC1(C(F)(F)F)CC(C2(Cl)CC2)=NN1C(=S)Nc1ccc(C(F)(F)F)cc1 (centres unmarked) [Example 78]
logP = 4.36^a)	OC1(C(F)(F)F)CC(C2(Cl)CC2)=NN1C(=S)Nc1ccc(Cl)cc1 (centres unmarked) [Example 79]
logP = 3.41^a)	O=C(Nc1ccc(Cl)cc1)N1N=C(c2ccco2)CC1(O)C(F)(F)F (centres unmarked) [Example 80]
logP = 3.99^a)	OC1(C(F)(F)F)CC(c2ccco2)=NN1C(=S)Nc1ccc(Cl)cc1 (centres unmarked) [Example 81]
logP = 3.97^a)	O=C(Nc1ccc(Cl)cc1)N1N=C(c2ccccc2)CC1(O)C(F)(F)F (centres unmarked) [Example 82]
logP = 3.30^a)	CCC1=NN(C(=S)Nc2c(F)cccc2F)C(O)(C(F)(F)F)C1 (centres unmarked) [Example 84]
logP = 4.47^a)	CCC1=NN(C(=S)Nc2cc(Cl)ccc2Cl)C(O)(C(F)(F)F)C1 (centres unmarked) [Example 85]
logP = 3.47^a)	CCC1=NN(C(=S)Nc2ccc(OC)cc2)C(O)(C(F)(F)F)C1 (centres unmarked) [Example 86]
logP = 4.29^a)	CCC1=NN(C(=S)Nc2cccc(Cl)c2Cl)C(O)(C(F)(F)F)C1 (centres unmarked) [Example 87]
logP = 4.52^a)	CCC1=NN(C(=S)Nc2ccc(Oc3ccccc3)cc2)C(O)(C(F)(F)F)C1 (centres unmarked) [Example 88]
logP = 3.52^a)	CCC1=NN(C(=S)Nc2c(F)cc(F)cc2F)C(O)(C(F)(F)F)C1 (centres unmarked) [Example 89]
logP = 4.51^a)	CCC1=NN(C(=S)Nc2cc(C(F)(F)F)ccc2Cl)C(O)(C(F)(F)F)C1 (centres unmarked) [Example 90]

logP	Compound
logP = 3.85^a)	CCC1=NN(C(=S)Nc2ccccc2OC)C(O)(C(F)(F)F)C1 (centres unmarked) [Example 91]
logP = 4.75^a)	CCC1=NN(C(=S)Nc2cc(Cl)cc(Cl)c2)C(O)(C(F)(F)F)C1 (centres unmarked) [Example 92]
logP = 3.62^a)	CCC1=NN(C(=S)Nc2ccc(F)cc2)C(O)(C(F)(F)F)C1 (centres unmarked) [Example 93]
logP = 3.71^a)	CCC1=NN(C(=S)Nc2cccc(F)c2)C(O)(C(F)(F)F)C1 (centres unmarked) [Example 94]
logP = 4.31^a)	CCC1=NN(C(=S)Nc2ccc(OC(F)(F)F)cc2)C(O)(C(F)(F)F)C1 (centres unmarked) [Example 95]
logP = 4.61^a)	CCC1=NN(C(=S)Nc2ccc(Cl)c(Cl)c2)C(O)(C(F)(F)F)C1 (centres unmarked) [Example 96]
logP = 4.34^a)	CCC1=NN(C(=O)NCc2ccc(Cl)c(Cl)c2)C(O)(C(F)(F)F)C1 (centres unmarked) [Example 97]
logP = 3.51^a)	CCC1=NN(C(=S)Nc2ccccc2F)C(O)(C(F)(F)F)C1 (centres unmarked) [Example 98]
logP = 4.85^a)	CCC1=NN(C(=S)Nc2ccc(C(C)(C)C)cc2)C(O)(C(F)(F)F)C1 (centres unmarked) [Example 99]
logP = 3.10^a)	COc1ccc(NC(=S)N2N=C(C)CC2(O)C(F)(F)F)cc1 (centres unmarked) [Example 102]
logP = 3.75^a)	CC1=NN(C(=S)Nc2cccc(Cl)c2Cl)C(O)(C(F)(F)F)C1 (centres unmarked) [Example 103]
logP = 4.15^a)	CC1=NN(C(=S)Nc2ccc(Oc3ccccc3)cc2)C(O)(C(F)(F)F)C1 (centres unmarked) [Example 104]
logP = 3.12^a)	CC1=NN(C(=S)Nc2c(F)cc(F)cc2F)C(O)(C(F)(F)F)C1 (centres unmarked) [Example 105]
logP = 3.94^a)	CC1=NN(C(=S)Nc2cc(C(F)(F)F)ccc2Cl)C(O)(C(F)(F)F)C1 (centres unmarked) [Example 107]
logP = 3.36^a)	COc1ccccc1NC(=S)N1N=C(C)CC1(O)C(F)(F)F (centres unmarked) [Example 108]
logP = 4.18^a)	CC1=NN(C(=S)Nc2cc(Cl)cc(Cl)c2)C(O)(C(F)(F)F)C1 (centres unmarked) [Example 109]
logP = 2.06^a)	CC1=NN(C(=S)Nc2ccc(F)cc2)C(O)(C(F)(F)F)C1 (centres unmarked) [Example 110]
logP = 3.18^a)	CC1=NN(C(=S)Nc2cccc(F)c2)C(O)(C(F)(F)F)C1 (centres unmarked) [Example 111]
logP = 3.89^a)	CC1=NN(C(=S)Nc2ccc(OC(F)(F)F)cc2)C(O)(C(F)(F)F)C1 (centres unmarked) [Example 112]
logP = 4.26^a)	CC1=NN(C(=S)NCc2ccc(Cl)c(Cl)c2)C(O)(C(F)(F)F)C1 (centres unmarked) [Example 113]
logP = 3.84^a)	CC1=NN(C(=O)Nc2ccc(Cl)c(Cl)c2)C(O)(C(F)(F)F)C1 (centres unmarked) [Example 116]
